From publication PMC3349722, “Prediction of Drug-Target Interactions and Drug Repositioning via Network-Based Inference” (PLoS Computational Biology, 2012)
Counter-ions that a name gives are not always drawn. Like-named read-outs stand apart in the source and are kept apart here.

What was measured:
[1] = target: ERβ (Homo sapiens, UniProt Q92731); test: Yeast two-hybrid system-based assay (ERβ LBD/SRC1, α-galactosidase), agonist and antagonist mode; assay type: cell-based; details: for Inhibitive Ratio% (10 μM), ERβ: antagonist assay with 1 nM E2; for IC50: read-out: IC50 on ERβ (antagonistic activity)
[2] = target: T1, ERα (Homo sapiens, UniProt P03372); test: Yeast two-hybrid system-based assay (ERα LBD/SRC1, α-galactosidase), agonist and antagonist mode; assay type: cell-based; details: for Inhibitive ratio % (10 μM), ERα: antagonist assay with 1 nM E2; for Agonistic activities (10 μM), ERα: DMSO = 1; for EC50: agonist testing
T1 sequence (P03372 301-553): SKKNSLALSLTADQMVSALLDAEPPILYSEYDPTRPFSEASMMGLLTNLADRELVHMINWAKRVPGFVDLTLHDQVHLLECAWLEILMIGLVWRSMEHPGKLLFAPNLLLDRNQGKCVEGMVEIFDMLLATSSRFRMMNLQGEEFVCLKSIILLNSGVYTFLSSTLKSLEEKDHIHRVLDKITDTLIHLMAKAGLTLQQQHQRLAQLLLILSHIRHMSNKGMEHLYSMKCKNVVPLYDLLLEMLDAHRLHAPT

[3] = system: MDA-MB-231 cells; test: MTT assay of cell proliferation; assay type: cell-based; details: Homo sapiens, MDA-MB-231 breast cancer cell line, 24 h, read-out: Antiproliferative activity IC50
Experimental: Cell proliferation was quantified by MTT assay. MDA-MB-231 cells were seeded at a density of 1.5×10^4 in a 96-well plate with DMEM/F12 supplemented with 10% charcoal stripped FBS without phenol red, and then incubated with the tested compounds in humidified air containing 5% CO2 at 37°C. After incubation for 24 h, 20 µL of 5 mg/mL MTT was added and incubated for another 4 h. Then the converted dye was dissolved in 100 µL of DMSO and the absorbance was measured at 570 nm.

[4] = target: T2, human recombinant DPP-IV (Homo sapiens, UniProt P27487); test: Dipeptidyl peptidase-IV inhibition assay (DPP-IV Drug Discovery Kit, fluorimetric); assay type: biochemical; details: for Inhibition Ratio (%) to DPP-IV: test concentration not given
T2 construct: purchased Biomol
Experimental: The inhibitory effects of compounds on human recombinant DPP-IV was determined using a DPP-IV Drug Discovery Kit (Biomol, USA) according to the manufacturer's instructions. The activity of DPP-IV was detected in a Synergy™ 2 Multi-Mode Microplate Reader (BioTek) at an excitation wavelength of 380 nm and an emission wavelength of 460 nm. […] IC50 values were determined using the GraphPad Prism 4 software with three independent determinations.
Table S4. The inhibitive activities profiles of nine approved drugs for dipeptidyl peptidase -IV
(DPP -IV ) enzyme inhibition assay. The inhibitory effects of compounds on human recombinant
DPP4 was determined using a DPP -IV Drug Discovery Kit (Biomol, USA) according to the
manufacturer ’s instructions. The DPP-IV Drug Discovery Kit is a complete assay system designed
to screen DPP 4 small molecule inhibitors. The fluorimetric assay is based on the cleavage of
7- a mino -4-methylcoumarin (AMC) moiety from peptide substrate (H-Gly-P ro-AMC), which
increases its fluorescence intensity at 460 nm. Compounds dilutions were prepared from stock in
DMSO and diluted with assay buffer for inhibition assay. A 40 μL solution of DPP -IV enzyme in
assa y buffer was incubated with 10μ L of various concentrations of test compoundsolutions for 10
min at room temperature. The reaction was initiated b y the addition of 50 μL of H-Gly-P ro- AMC
with a final concentration of 5 μM. The activity of DPP4 was detected in a Synergy™ 2
Multi-Mode Microplate Reader (BioTek) at an excitation wavelength of 380 nm and an emission
wavelength of 460 nm. […] IC 50 values were
determined by using the G raphP ad Prism 4 software with three independent determinations.

[5] = system: ERα and ERβ; test: Yeast two-hybrid system-based assay, summary statements on ER (subtype not separated)

T2 sequence (P27487 whole entry): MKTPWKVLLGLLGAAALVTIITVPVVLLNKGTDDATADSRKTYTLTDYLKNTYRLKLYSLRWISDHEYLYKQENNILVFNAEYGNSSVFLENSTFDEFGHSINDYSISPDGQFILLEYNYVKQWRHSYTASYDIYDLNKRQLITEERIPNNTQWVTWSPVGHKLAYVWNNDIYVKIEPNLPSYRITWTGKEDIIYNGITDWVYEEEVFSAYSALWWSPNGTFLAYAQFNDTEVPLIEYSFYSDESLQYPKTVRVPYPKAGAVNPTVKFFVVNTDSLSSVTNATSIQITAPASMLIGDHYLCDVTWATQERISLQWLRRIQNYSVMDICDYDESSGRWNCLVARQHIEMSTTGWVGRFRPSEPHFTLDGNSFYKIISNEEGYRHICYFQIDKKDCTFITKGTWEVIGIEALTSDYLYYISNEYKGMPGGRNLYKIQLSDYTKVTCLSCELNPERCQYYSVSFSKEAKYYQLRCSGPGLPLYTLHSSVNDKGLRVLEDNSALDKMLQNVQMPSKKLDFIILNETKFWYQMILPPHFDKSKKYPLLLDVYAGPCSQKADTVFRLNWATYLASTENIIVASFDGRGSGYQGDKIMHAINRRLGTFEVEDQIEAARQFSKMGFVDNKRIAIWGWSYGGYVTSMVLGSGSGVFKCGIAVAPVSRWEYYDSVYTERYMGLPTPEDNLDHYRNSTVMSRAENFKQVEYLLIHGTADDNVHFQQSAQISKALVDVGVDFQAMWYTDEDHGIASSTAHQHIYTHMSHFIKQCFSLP
Sequence of ERβ (Q92731 248-510): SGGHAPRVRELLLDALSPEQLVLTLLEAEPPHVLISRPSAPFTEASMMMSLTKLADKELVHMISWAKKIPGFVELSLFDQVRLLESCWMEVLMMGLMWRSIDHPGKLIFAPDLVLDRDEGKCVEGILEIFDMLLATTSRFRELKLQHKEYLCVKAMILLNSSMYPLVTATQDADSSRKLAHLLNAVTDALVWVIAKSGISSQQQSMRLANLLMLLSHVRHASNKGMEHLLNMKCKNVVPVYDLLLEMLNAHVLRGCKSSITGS

| Compound | Inhibitive Ratio% (10 μM), ERβ [1] [%] | Agonistic activities (10 μM), ERβ ([1]; DMSO = 1) | Agonistic activities (10 μM), ERα [2] | other results |
| --- | --- | --- | --- | --- |
| CC(C)C(=O)Nc1ccc([N+](=O)[O-])c(C(F)(F)F)c1 [Flutamide] | 2.83 | 0.949 | – | – |
| CN/C(=N/CCSCc1nc[nH]c1C)NC#N [Cimetidine] | – | – | 1.018 | Inhibitive ratio % (10 μM), ERα [2]: 2.4% |
| CCC(C)(C)C(=O)O[C@H]1C[C@@H](C)C=C2C=C[C@H](C)[C@H](CC[C@@H]3C[C@@H](O)CC(=O)O3)[C@H]21 [Simvastatin] | – | – | – | IC50 [3]: 1490 nM |
| NS(=O)(=O)Cc1noc2ccccc12 [Zonisamide] | – | 1.029 | – | – |
| CC[C@H](C)C(=O)O[C@H]1C[C@@H](C)C=C2C=C[C@H](C)[C@H](CC[C@@H]3C[C@@H](O)CC(=O)O3)[C@H]21 [Lovastatin] | – | – | – | Inhibition Ratio (%) to DPP-IV [4]: 9.49% |
| O=c1[nH]c2ccccc2n1C1CCN(CCCC(c2ccc(F)cc2)c2ccc(F)cc2)CC1 [Pimozide] | – | – | 0.955 | Inhibitive ratio % (10 μM), ERα [2]: 4.58% |
| NC(=O)N1c2ccccc2C=Cc2ccccc21 [Carbamazepine] | – | – | – | Inhibition Ratio (%) to DPP-IV [4]: 19.67% |
| Cc1ccc(C)c(OCCCC(C)(C)C(=O)O)c1 [Gemfibrozil] | – | – | – | Inhibition Ratio (%) to DPP-IV [4]: 17.35% |
| CC[C@@H]1C(=O)OC[C@@H]1Cc1cncn1C.Cl [Pilocarpine HCl] | – | – | 1.008 | – |
| O=C(O)Cc1ccccc1Nc1c(Cl)cccc1Cl [Diclofenac] | – | 0.846 | – | IC50 [1]: 2320 nM; IC50 or EC50 values on ER [5]: less than 10 μM |
| C=CCN1CC[C@]23c4c5ccc(O)c4O[C@H]2C(=O)CC[C@@]3(O)[C@H]1C5 [Naloxone HCl] | 0 | 1.051 | – | – |
| COc1ccc2[nH]cc(CCNC(C)=O)c2c1 [Melatonin] | 0 | 0.914 | – | – |
| N#Cc1ccc(C(c2ccc(C#N)cc2)n2cncn2)cc1 [Letrozole] | 0 | 0.846 | – | – |
| CC#C[C@]1(O)CC[C@H]2[C@@H]3CCC4=CC(=O)CCC4=C3[C@@H](c3ccc(N(C)C)cc3)C[C@@]21C [Mifepristone] | 27.16 | 1.080 | 1.463 | Inhibitive ratio % (10 μM), ERα [2]: 0% |
| CCc1ccc(CCOc2ccc(CC3SC(=O)NC3=O)cc2)nc1 (stereo not shown) [Pioglitazone] | – | – | – | Inhibition Ratio (%) to DPP-IV [4]: 18.63% |
| CS(=O)(=O)CCNCc1ccc(-c2ccc3ncnc(Nc4ccc(OCc5cccc(F)c5)c(Cl)c4)c3c2)o1 [Lapatinib] | – | – | 0.995 | Inhibition Ratio (%) to DPP-IV [4]: 39.64%; Inhibitive ratio % (10 μM), ERα [2]: 14.01% |
| C[C@]12CC[C@@H]3c4ccc(O)cc4CC[C@H]3[C@@H]1CC[C@@H]2O [E2, estradiol] | – | – | – | Agonistic activities, ERβ, E2 control ([1]; 1 nM, DMSO = 1): 5.77 |
| CC(C)(C#N)c1cc(Cn2cncn2)cc(C(C)(C)C#N)c1 [Anastrozole] | – | 1.011 | – | – |
| 17-hydroxyprogesterone | 13.01 | 0.961 | – | – |
| CC(C)(O)c1ccccc1CC[C@@H](SCC1(CC(=O)O)CC1)c1cccc(/C=C/c2ccc3ccc(Cl)cc3n2)c1 [Montelukast] | – | – | – | Inhibition Ratio (%) to DPP-IV [4]: 49.7%; IC50 ([4]; three independent determinations): 9790 nM |
| CN(C)C(=O)C(CCN1CCC(O)(c2ccc(Cl)cc2)CC1)(c1ccccc1)c1ccccc1 [Loperamide] | 0 | 0.910 | 0.934 | Inhibitive ratio % (10 μM), ERα [2]: 6.18% |
| N[C@@H]1C[C@H]1c1ccccc1 (racemic) [Tranylcypromine] | 0 | 0.965 | 0.988 | Inhibitive ratio % (10 μM), ERα [2]: 4.3% |
| CN(C)CCCN1c2ccccc2Sc2ccc(Cl)cc21 [Chlorpromazine HCl] | 3.11 | 0.981 | – | – |
| CCC1(c2ccc(N)cc2)CCC(=O)NC1=O (racemic) [Dl-aminoglutethimide] | – | – | 0.956 | – |

Continued, in another order:

| Inhibitive Ratio% (10 μM), ERβ [1] [%] | Agonistic activities (10 μM), ERβ ([1]; DMSO = 1) | Agonistic activities (10 μM), ERα [2] | Compound | other results |
| --- | --- | --- | --- | --- |
| – | – | 0.962 | COC(=O)C1=C(C)NC(C)=C(C(=O)OCCN(C)Cc2ccccc2)C1c1cccc([N+](=O)[O-])c1 (stereo not shown) [Nicardipine] | Inhibition Ratio (%) to DPP-IV [4]: 21.24%; Inhibitive ratio % (10 μM), ERα [2]: 15.21% |
| – | 0.853 | – | CC(=O)N1CCN(c2ccc(OCC3COC(Cn4ccnc4)(c4ccc(Cl)cc4Cl)O3)cc2)CC1 (stereo not shown) [Ketoconazole] | IC50 [1]: 790 nM; IC50 or EC50 values on ER [5]: less than 1 μM; IC50 or EC50 values on ER ([5]; listed as ketoconazole): less than 10 μM; IC50 [3]: 8950 nM |
| 51.99 | 1.890 | 4.132 | CCC(C)n1ncn(-c2ccc(N3CCN(c4ccc(OCC5COC(Cn6cncn6)(c6ccc(Cl)cc6Cl)O5)cc4)CC3)cc2)c1=O (stereo not shown) [Itraconazole] | IC50 ([1]; antagonist assay): 280 nM; IC50 or EC50 values on ER [5]: less than 1 μM; IC50 or EC50 values on ER ([5]; listed as itraconazole): less than 10 μM; Inhibitive ratio % (10 μM), ERα [2]: 8.19%; EC50 ([2]; REC50 on ERα (concentration showing 50% of the maximum agonistic activity of E2), relative to E2): 320 nM; EC50 ([2]; read-out: EC50 on ERα (agonistic activity)): 200 nM |
| 0 | 0.947 | – | Nc1nc2c(ncn2CCC(CO)CO)c(=O)[nH]1 [Penciclovir] | – |
| 0 | 0.894 | – | CC(=O)OCC(CCn1cnc2cnc(N)nc21)COC(C)=O [Famciclovir] | – |
